Test results published in patent US12153062B2, “Method for estimating physical property of aqueous sample” (Kao Corporation, priority 2018, dated 2024).

Assays:
Format in all cases: physicochemical
[1] = Amount of phase-changing probe 2-EHDG required until phase structure changes (Wm phase to Om phase + W phase); liquid physical property index read from calibration curve
[2] = as above; conditions: for Solution physical property index (corresponding HLB) from calibration curve: 100 mmol/kg
Protocol: (§1) Using the following components, precursor samples and standard samples for preparing calibration curves were prepared, and using any of the following phase-changing probes, an amount of the phase-changing probe required until a phase structure of a standard sample changed was quantified for each of a plurality of surfactants (G). The calibration curves were prepared from the plurality of quantitative values obtained. • Surfactant (G): a plurality of polyoxyethylene lauryl ethers with different average numbers of added moles of the ethylene oxide • Oil component: an isoparaffin with an average number of carbons of 16 (hereinafter, referred to as C16 isoparaffin) • Phase-changing probe: 2-ethylhexyl diglycol or butyldiglycol
(§2) The concentration of surfactant (G) in each precursor sample was 200 mmol/kg (the balance was water).
(§3) The amount of the oil component added per 100 g of each precursor sample was determined to be 4 g by assigning 50 to X in the aforementioned formula (I).
For this standard sample, 2-ethylhexyl diglycol (hereinafter, sometimes also referred to as 2-EHDG) was used as the phase-changing probe, and an amount of the phase-changing probe required until a phase structure of the standard sample changed from a micellar solution phase (Wm phase) to a mixed system of a reversed micellar oil solution phase (Om phase) and a water phase (W phase) was taken as the quantitative value.
(§4) Note that, in either case, the ambient temperature when the phase-changing probe was added to the standard sample was 25° C. Further, in either case, the phase-changing probe was added to the standard sample under the condition of being stirred with a magnetic stirrer.
(§5) Note that the quantitative values and HLB values were entered into spreadsheet software “Excel” (manufactured by Microsoft Corporation) to be processed, thereby obtaining the calibration curves as regression lines (calibration curves 1 and 2). Calibration curves 1 and 2 are shown in Graph A (FIG. 1).
As the oil components, components shown in Table 3 were used; as the phase-changing probe, 2-EHDG was used; and the concentration of surfactant (G) in each precursor sample was 100 mmol/kg. Note that, in this example, the amount of an oil component added per 100 g of each precursor sample was determined to be 2 g by assigning 50 to X in the aforementioned formula (I).
A measurement sample was prepared by adding 2 g of any of the oil components shown in Table 3 per 100 g of the aqueous sample.
2-EHDG as the phase-changing probe was added to the measurement sample under the same conditions as those for preparing the calibration curves, and an amount of the phase-changing probe required until a phase structure changed was quantified.

[3] = Amount of phase-changing probe BDG required until phase structure changes (Om phase + W phase to Wm phase); conditions: surfactant 200 mmol/kg; C16 isoparaffin 4 g per 100 g; 25° C.; for calibration curve 2
Protocol: as §1, §2, §3
On the other hand, in the case where an average number of added moles of the ethylene oxide of surfactant (G) was relatively small (the average number of added moles was 2 to 5), the initial phase structure of the standard sample was a mixed system of a reversed micellar oil solution phase (Om phase) and a water phase (W phase). For this standard sample, butyldiglycol (hereinafter, sometimes also referred to as BDG) was used as the phase-changing probe, and an amount of the phase-changing probe required until a phase structure of the standard sample changed from a mixed system of a reversed micellar oil solution phase (Om phase) and a water phase (W phase) to a micellar solution phase (Wm phase) was taken as the quantitative value.
as §4, §5

[4] = surfactant 100 mmol/kg, solvent BDG 5 mass %, C16 isoparaffin 2 g per 100 g, 25° C., calibration curve 10, no inorganic salt
[5] = surfactant 100 mmol/kg, solvent BDG 5 mass %, C16 isoparaffin 2 g per 100 g, no inorganic salt
[6] = surfactant 100 mmol/kg, oil component C16 isoparaffin 2 g per 100 g, calibration curve 3
[7] = surfactant 100 mmol/kg, oil component Cyclohexane 2 g per 100 g, calibration curve 7
[8] = surfactant 100 mmol/kg, oil component Decane 2 g per 100 g, calibration curve 4
[9] = surfactant 100 mmol/kg, oil component Hexadecane 2 g per 100 g, calibration curve 6
[10] = surfactant 100 mmol/kg, oil component Tetradecane 2 g per 100 g, calibration curve 5
[11] = surfactant 200 mmol/kg, C16 isoparaffin 4 g per 100 g, 25° C., for calibration curve 1
[12] = concentration of polyoxyethylene lauryl ether 5 mmol/kg, C16 isoparaffin 0.1 g per 100 g, calibration curve 8
[13] = concentration of polyoxyethylene lauryl ether 350 mmol/kg, C16 isoparaffin 7 g per 100 g, calibration curve 9

CCCCCCCCCCCC[N+](C)(C)C.[Cl-] [Lauryltrimethylammonium chloride]
Quantitative value (g) of phase-changing probe (2-EHDG) [1, 4]: 11.04 g
Solution physical property index (corresponding HLB) from calibration curve 10 [1, 5]: 14.25

CCCCCCCC[N+](C)(C)Cc1ccccc1.[Cl-] [Octyldimethylbenzylammonium chloride]
Quantitative value (g) of phase-changing probe (2-EHDG) [1, 4]: 9.20 g
Solution physical property index (corresponding HLB) from calibration curve 10 [1, 5]: 13.48

polyoxyethylene lauryl ether [Polyoxyethylene lauryl ether 9]
Quantitative value (g) of phase-changing probe (2-EHDG) [2, 6]: 7.58 g
Quantitative value (g) of phase-changing probe (2-EHDG) [2, 7]: 5.84 g
Quantitative value (g) of phase-changing probe (2-EHDG) [2, 8]: 6.98 g
Quantitative value (g) of phase-changing probe (2-EHDG) [2, 9]: 7.74 g
Quantitative value (g) of phase-changing probe (2-EHDG) [2, 10]: 7.6 g
Quantitative value (g) of phase-changing probe (2-EHDG) [2, 11]: 5.38 g
Quantitative value (g) of phase-changing probe (2-EHDG) [1, 12]: 0.46 g
Quantitative value (g) of phase-changing probe (2-EHDG) [1, 13]: 9.36 g
Quantitative value (g) of phase-changing probe (2-EHDG) [1, 4]: 9.46 g

polyoxyethylene lauryl ether [Polyoxyethylene lauryl ether 21]
Quantitative value (g) of phase-changing probe (2-EHDG) [2, 11]: 11.92 g
Quantitative value (g) of phase-changing probe (2-EHDG) [1, 12]: 1.28 g

CCCCCCCCCCCCCC[N+](C)(C)[O-] [Myristyl dimethylamine oxide]
Quantitative value (g) of phase-changing probe (2-EHDG) [1, 4]: 4.72 g
Solution physical property index (corresponding HLB) from calibration curve 10 [1, 5]: 11.60

polyoxyethylene lauryl ether [Polyoxyethylene lauryl ether 12]
Quantitative value (g) of phase-changing probe (2-EHDG) [2, 6]: 10.24 g
Quantitative value (g) of phase-changing probe (2-EHDG) [2, 7]: 8.24 g
Quantitative value (g) of phase-changing probe (2-EHDG) [2, 8]: 9.4 g
Quantitative value (g) of phase-changing probe (2-EHDG) [2, 9]: 10.24 g
Quantitative value (g) of phase-changing probe (2-EHDG) [2, 10]: 10.02 g
Quantitative value (g) of phase-changing probe (2-EHDG) [2, 11]: 7.4 g
Quantitative value (g) of phase-changing probe (2-EHDG) [1, 12]: 0.94 g
Quantitative value (g) of phase-changing probe (2-EHDG) [1, 13]: 11.76 g
Quantitative value (g) of phase-changing probe (2-EHDG) [1, 4]: 12.5 g

Sodium polyoxyethylene (2 moles on average) lauryl ether sulfate
Quantitative value (g) of phase-changing probe (2-EHDG) [1, 4]: 17.68 g
Solution physical property index (corresponding HLB) from calibration curve 10 [1, 5]: 17.04

polyoxyethylene lauryl ether [Polyoxyethylene lauryl ether 2]
Quantitative value (g) of phase-changing probe (BDG) [3]: 18.57 g

polyoxyethylene lauryl ether [Polyoxyethylene lauryl ether 5]
Quantitative value (g) of phase-changing probe (BDG) [3]: 5.5 g
Quantitative value (g) of phase-changing probe (2-EHDG) [1, 4]: 2.12 g

CCCCCCCCCCCC[N+](C)(C)CC(O)CS(=O)(=O)[O-] (stereo not drawn) [N-lauryl-N,N-dimethyl-N-(2-hydroxysulfopropyl)ammonium sulfobetaine]
Solution physical property index (corresponding HLB) from calibration curve ([2]; oil component C16 isoparaffin, calibration curve 3): 11.46
Solution physical property index (corresponding HLB) from calibration curve ([2]; oil component Decane, calibration curve 4): 11.52
Solution physical property index (corresponding HLB) from calibration curve ([2]; oil component Hexadecane, calibration curve 6): 11.44
Solution physical property index (corresponding HLB) from calibration curve ([2]; oil component Tetradecane, calibration curve 5): 11.47
Quantitative value (g) of phase-changing probe (2-EHDG) [2, 6]: 2.36 g
Quantitative value (g) of phase-changing probe (2-EHDG) [2, 7]: 1.15 g
Quantitative value (g) of phase-changing probe (2-EHDG) [2, 8]: 2.36 g
Quantitative value (g) of phase-changing probe (2-EHDG) [2, 9]: 2.78 g
Quantitative value (g) of phase-changing probe (2-EHDG) [2, 10]: 2.66 g
Quantitative value (g) of phase-changing probe (2-EHDG) [1, 4]: 3.60 g

CCCCC(CC)COC(=O)CC(C(=O)OCC(CC)CCCC)S(=O)(=O)[O-].[Na+] (stereo not drawn) [Sodium di-2-ethylhexylsulfosuccinate]
Quantitative value (g) of phase-changing probe (2-EHDG) [1, 4]: 5.50 g
Solution physical property index (corresponding HLB) from calibration curve 10 [1, 5]: 11.93

CCCCCCCCCCCCCCCC[N+](C)(C)C.[Cl-] [Palmityltrimethylammonium chloride]
Quantitative value (g) of phase-changing probe (2-EHDG) [1, 4]: 9.12 g
Solution physical property index (corresponding HLB) from calibration curve 10 [1, 5]: 13.45

polyoxyethylene lauryl ether [Polyoxyethylene lauryl ether 4]
Quantitative value (g) of phase-changing probe (BDG) [3]: 7.29 g
Quantitative value (g) of phase-changing probe (2-EHDG) [1, 4]: 1.16 g

Lauryl glucoside
Quantitative value (g) of phase-changing probe (2-EHDG) [1, 4]: 4.44 g
Solution physical property index (corresponding HLB) from calibration curve 10 [1, 5]: 11.48

Sodium polyoxyethylene (4 moles on average) lauryl ether sulfate
Quantitative value (g) of phase-changing probe (2-EHDG) [1, 4]: 19.88 g
Solution physical property index (corresponding HLB) from calibration curve 10 [1, 5]: 17.96

CCCCCCCCCCCC[N+](C)(C)Cc1ccccc1.[Cl-] [Lauryldimethylbenzylammonium chloride]
Quantitative value (g) of phase-changing probe (2-EHDG) [1, 4]: 10.36 g
Solution physical property index (corresponding HLB) from calibration curve 10 [1, 5]: 13.97

polyoxyethylene lauryl ether [Polyoxyethylene lauryl ether 3]
Quantitative value (g) of phase-changing probe (BDG) [3]: 13.2 g

polyoxyethylene (6 moles on average) lauryl ether [Polyoxyethylene lauryl ether 6]
Quantitative value (g) of phase-changing probe (2-EHDG) [2, 6]: 2.96 g
Quantitative value (g) of phase-changing probe (2-EHDG) [2, 7]: 1.96 g
Quantitative value (g) of phase-changing probe (2-EHDG) [2, 8]: 2.78 g
Quantitative value (g) of phase-changing probe (2-EHDG) [2, 9]: 3.4 g
Quantitative value (g) of phase-changing probe (2-EHDG) [2, 10]: 3.2 g
Quantitative value (g) of phase-changing probe (2-EHDG) [2, 11]: 1.7 g
Quantitative value (g) of phase-changing probe (2-EHDG) [1, 12]: 0.24 g
Quantitative value (g) of phase-changing probe (2-EHDG) [1, 13]: 2.44 g
Quantitative value (g) of phase-changing probe (2-EHDG) [1, 4]: 4.76 g
